Laboratory results published in patent US11726102B2, “Particle-based drug detection method and device embodiments” (Washington State University, priority 2015, dated 2023).
“And” between values parts separate entries of the source, which are not always exact repeats. Equal entries are not always repeated. Where two headings read alike, the source gives them in different places.

Key:
[1] = at 25° C.; cited from earlier work
[2] = cited from earlier work
[3] = cited from earlier work; remark: listed apart in the source
[4] = THC on swab and in spit after cannabis inhalation (HPLC-MS); conditions: saliva spit into collection vial after inhaling cannabis; one line per volunteer (V14, V27, V40)

## CCCCCc1cc(O)c2c(c1)OC(C)(C)[C@@H]1CCC(C)=C[C@@H]21 [THC, Δ^9-tetrahydrocannabinol]
[1]
  vapor pressure: 4.6×10^−8 mmHg
[2]; after being consumed
  time for the concentration in the body to build up to intoxication levels: at least 20 minutes
[2]; after inhalation, estimated
  psychoactive effects of THC felt after initial consumption: 2 to 4 h
[3]; after inhalation, blood analyses by GC-MS or LC-MS
  time THC can be detected in the blood: 3.5 to 5.5 h
[3]; chronic users
  time detectable in human samples after use: up to 15 days
[3]; occasional users
  time detectable in human samples after use: 1.3 days
[4]
  THC in Spit: 2110.1 ng and 2259.2 ng and 129.6 ng
